For data set [1], the system named is line DC-3F/AD. Description: Cytotoxicity (Microculture Tetrazolium Assay): reversal of resistance to actinomycin D, line DC-3F/AD. The class given is cell-based, Chinese hamster. Conditions: 4 days. An excerpt:
The pharmacological study of the compounds of the present invention consisted first of all in an evaluation in vitro carried out on resistant cells. The parameter measured is the cytotoxicity of the antitumour drug, quantified in the absence and in the presence of the reversing compound.
The cells are distributed on microplates and exposed to the cytotoxic compounds (actinomycin D for line DC-3F/AD and adriamycin for line KB-Al) at 9 concentrations (2 by 2 series dilutions). The compounds tested for their capacity to reverse MDR are added at the same time as the cytotoxic agent.
The cells are then incubated for 4 days. […] The results are expressed as a reversion factor (RF): PG,29 [formula]

For data set [2], the system named is line DC-3F/AD. Description: Flow cytometry: intracellular accumulation of adriamycin by cells of the line DC-3F/AD. In kind it is cell-based, Chinese hamster. Particulars: ADR 50 μM, 5 hours. An excerpt:
Also measured was the effect of the compounds on the intracellular concentration of the cytotoxic agent. In effect, the known compounds for reversing MDR act by increasing the intracellular concentration of cytotoxic agent. This effect is the consequence of inhibiting the action of gP 170 which is responsible for the efflux of the drug.
By measuring that fluorescence, it is thus possible to obtain a relative measurement of the intracellular concentration of ADR.
The cells 500×10^3 per ml were exposed simultaneously to ADR at a fixed concentration (50 μM) and to the tested compounds at various concentrations. After 5 hours' incubation, the intracellular accumulation of ADR was evaluated by FCM. […] The analysis of each of the samples was carried out on a total of 10,000 cells at a rate of 1,000 cells per second.
The results were presented in the form of linear histograms of the intracellular ADR fluorescence.
Expression of the results: for each of the histograms the mean fluorescence per channel (MEAN) was determined by the information system of the apparatus. For all experiments:
a negative control (cells without ADR) fixed the autofluorescence threshold.
a positive control (cells with ADR) determined the MEAN value=MN1.
the "test" tubes (cells with ADR and with compound) were used to determine, for each of the compounds and at each of the concentrations, the MEAN values=MN2.
The results are expressed in the form of variations from the mean fluorescence obtained for each of the "test" tubes (MN2) in relation to the mean fluorescence obtained with the positive control (MNl): VAR-MEAN=MN2-MN1. The parameter expressed is thus the increase in ADR fluorescence in the presence of the tested compounds.
For orientation: A flow cytometer gives signals particle by particle.

10 compounds from patent publication US5238936A, “Trisubstituted triazines” (Adir et Compagnie, priority 1991, dated 1993) can be followed below.

For the compound `C=CCNc1nc(NCC=C)nc(NCC(O)CN2CCN(C3c4ccccc4CCc4ccccc43)CC2)n1` (stereo not drawn) [Example 6, 2,4-diallylamino-6-{3-[4-(10,11-dihydro-5H-dibenzo[a,d]cyclohepten-5-yl)piperazin-1-yl]-2-hydroxypropylamino}-1,3,5-triazine], the “Reversion factors (cytotoxicity) with the line DC-3F/AD” value (“Reversion factors (cytotoxicity)” below) is 0.9 in data set [1] (0.5 μM compound) and 1.1 in data set [1] (1 μM compound). The “VAR-MEAN (increase in ADR fluorescence), line DC-3F/AD” value is on record as 11.0 in data set [2] (1.0 μM compound), 24.3 in data set [2] (5.0 μM compound), 27.6 in data set [2] (10 μM compound) and 14.4 in data set [2] ([…] compound).

Take `C=CCNc1nc(NCC=C)nc(N2CCC(N(C)CC3c4ccccc4CCc4ccccc43)CC2)n1` [Example 30, 2,4-diallylamino-6-{4-[N-((10,11-dihydro-5H-dibenzo[a,d]cyclohepten-5-yl)methyl)-N-methylamino]piperidin-1-yl}-1,3,5-triazine]: the results for the “Reversion factors (cytotoxicity)” value in data set [1] (1 μM compound) and in data set [1] (5 μM compound) were 2.3 and 834.0, respectively. Moreover, the “VAR-MEAN (increase in ADR fluorescence), line DC-3F/AD” value in data set [2] (1.0 μM compound) is listed as 5.9; in data set [2] (5.0 μM compound), 17.8; in data set [2] (10 μM compound), 19.0; in data set [2] ([…] compound), 12.3.

As to `C=CCNc1nc(N)nc(N2CCC(NCC3c4ccccc4CCc4ccccc43)CC2)n1` [Example 18, 2-allylamino-4-amino-6-{4-[(10,11-dihydro-5H-dibenzo[a,d]cyclohepten-5-yl)methylamino]piperidin-1-yl}-1,3,5-triazine], the “Reversion factors (cytotoxicity)” value in data set [1] (0.5 μM compound) is reported as 1.2; in data set [1] (1 μM compound) it was 3; in data set [1] (5 μM compound), 421. Also, the “VAR-MEAN (increase in ADR fluorescence), line DC-3F/AD” value was 5.5 in data set [2] (1.0 μM compound), 6.7 in data set [2] (5.0 μM compound), 11.0 in data set [2] (10 μM compound) and 7.4 in data set [2] ([…] compound).

For the compound `C=CCNc1nc(NCC=C)nc(N2CCC(CNC3c4ccccc4CCc4ccccc43)CC2)n1` [Example 23, 2,4-diallylamino-6-{4-[(10,11-dihydro-5H-dibenzo[a,d]cyclohepten-5-yl)aminomethyl]piperidin-1-yl}-1,3,5-triazine], the “Reversion factors (cytotoxicity)” value was 1.4 in data set [1] (1 μM compound) and 173 in data set [1] (5 μM compound). For the same compound, the “VAR-MEAN (increase in ADR fluorescence), line DC-3F/AD” value in data set [2] (1.0 μM compound) stood at 10.0; in data set [2] (5.0 μM compound), 14.0; in data set [2] (10 μM compound), 20.5; in data set [2] ([…] compound), 14.6.

As for `C=CCNc1nc(NCC=C)nc(N2CCC(NC3c4ccccc4CCc4ccccc43)CC2)n1` [Example 4, 2,4-diallylamino-6-[4-(10,11-dihydro-5H-dibenzo[a,d]cyclohepten-5-ylamino)piperidin-1-yl]-1,3,5-triazine], the “Reversion factors (cytotoxicity)” value in data set [1] (0.5 μM compound) is given as 21; in data set [1] (1 μM compound) it was 66; in data set [1] (5 μM compound), 755. Also, the “VAR-MEAN (increase in ADR fluorescence), line DC-3F/AD” value in data set [2] (1.0 μM compound) was determined as 16.2; in data set [2] (5.0 μM compound) it was 25.5; in data set [2] (10 μM compound), 28.1; in data set [2] ([…] compound), 21.8.

In the case of `C=CCNc1nc(NCC=C)nc(N2CCC(NCC3c4ccccc4CS(=O)(=O)c4ccccc43)CC2)n1` (racemic) [Example 32, 2,4-diallylamino-6-{4-[((R,S)-6,11-dihydro-5,5-dioxo-dibenzo[b,e]thiepin-11-yl)methylamino]piperidin-1-yl}-1,3,5-triazine], the “Reversion factors (cytotoxicity)” value is 1.3 in data set [1] (1 μM compound) and 27.4 in data set [1] (5 μM compound). In addition, the “VAR-MEAN (increase in ADR fluorescence), line DC-3F/AD” value is 0.0 in data set [2] (1.0 μM compound), 12.4 in data set [2] (5.0 μM compound) and 1.9 in data set [2] ([…] compound).

As for `C=CCNc1nc(NCC=C)nc(N2CCC(NCC3c4ccccc4CSc4ccccc43)CC2)n1` (racemic) [Example 26, 2,4-diallylamino-6-{4-[((R,S)-6,11-dihydro-dibenzo[b,e]thiepin-11-yl)methylamino]piperidin-1-yl}-1,3,5-triazine], the results for the “Reversion factors (cytotoxicity)” value in data set [1] (1 μM compound) and in data set [1] (5 μM compound) were 6.8 and 866.6, respectively. Moreover, the “VAR-MEAN (increase in ADR fluorescence), line DC-3F/AD” value worked out at 4.3 in data set [2] (1.0 μM compound), 33.5 in data set [2] (5.0 μM compound), 32.6 in data set [2] (10 μM compound) and 17.8 in data set [2] ([…] compound).

Regarding `C=CCNc1nc(NCC=C)nc(NCC2CCN(C3c4ccccc4CCc4ccccc43)CC2)n1` [Example 7, 2,4-diallylamino-6-{[1-(10,11-dihydro-5H-dibenzo[a,d]cyclohepten-5-yl)piperidin-4-yl]methylamino}-1,3,5-triazine], the “Reversion factors (cytotoxicity)” value in data set [1] (0.5 μM compound) worked out at 1.2; in data set [1] (1 μM compound) it was 1.1; in data set [1] (5 μM compound) it was 9.7. The “VAR-MEAN (increase in ADR fluorescence), line DC-3F/AD” value in data set [2] (1.0 μM compound) is 3.4; in data set [2] (5.0 μM compound), 10.1; in data set [2] (10 μM compound), 17.4; in data set [2] ([…] compound), 3.9.

For the compound `C=CCNc1nc(NCC=C)nc(NCCN2CCC(NCC3c4ccccc4CCc4ccccc43)CC2)n1` [Example 15, 2,4-diallylamino-6-(2-[4-(10,11-dihydro-5H-dibenzo-[a,d]cyclohepten-5-ylmethylamino)piperidin-1-yl]ethylamino}-1,3,5-triazine], the “Reversion factors (cytotoxicity)” value is on record as 0.8 in data set [1] (0.5 μM compound), 1 in data set [1] (1 μM compound) and 120 in data set [1] (5 μM compound). Moreover, the “VAR-MEAN (increase in ADR fluorescence), line DC-3F/AD” value in data set [2] (1.0 μM compound) is listed as 10.1; in data set [2] (5.0 μM compound), 13.7; in data set [2] (10 μM compound), 12.4; in data set [2] ([…] compound), 12.4.

With `C=CCNc1nc(NCC=C)nc(N2CCN(C3c4ccccc4CCc4ccccc43)CC2)n1` [Example 1, 2,4-Diallylamino-6-{4-(10,11-dihydro-5H-dibenzo[a,d]cyclohepten-5-yl)piperazin-1-yl}-1,3,5-triazine], the “Reversion factors (cytotoxicity)” value in data set [1] (1 μM compound) was determined as 27; in data set [1] (5 μM compound), 309. Also, the “VAR-MEAN (increase in ADR fluorescence), line DC-3F/AD” value in data set [2] (1.0 μM compound) was found to be 8.4; in data set [2] (5.0 μM compound) it was 16.0; in data set [2] (10 μM compound), 19.3; in data set [2] ([…] compound) it was 4.9.
